Test results: patent US12630589B2, “Compounds for use in viral infections” (priority 2020, dated 2026)
Like-named read-outs stand apart in the source and are kept apart here.

How the values were obtained:
Huh7 cells = assay: Cell biomass (DAPI) in Huh7 cells; type: cell-based, human; settings: 48 hours
Protocol: (§1) Relative infection efficiency was assessed by automated fluorescence microscopy in the green channel and overall cell biomass/well was estimated by nuclear staining with DAPI in the blue channel, as a preliminary assessment of the compound effective doses as well as overall compound cytotoxicity.
(§2) Infection experiments: Cells were seeded onto 96-well plates (2×10^4 cells/well). The day after, serial 5-fold dilutions of plitidepsin were prepared in 2% FCS-containing complete media to achieve the indicated final concentrations. WNV-GFP stock was diluted in complete media containing 2% FCS to achieve the required multiplicity of infection (MOI 0.01). Compound and virus dilutions were mixed 1:1 and added onto the target cells. Cells were incubated for 48 hours at 37° C.; 5% CO2 and 95% humidity.
(§3) Cells were fixed by addition of a 5× formaldehyde solution to achieve a 4% final concentration for 30 mins at room temperature. Cells were washed with PBS and stained with DAPI (4′,6-diamidino-2-phenylindole) following manufacturer's recommendations. Relative infection efficiency was estimated by image analysis in an automated microscopy device (Tecan Spark Cyto). Uninfected cells and vehicle-treated controls were included in each plate.

[1] = test system: IL-1, IL-6, IL-8 and TNFα secretion; assay: ELISA assays for secreted cytokines in THP-1 cells; type: cell-based, human; settings: 100 nM plitidepsin, 6 hours, TLR ligands
Protocol: To investigate whether plitidepsin inhibits the TLR-trigged cytokine secretion, we treated THP-1 cells with 100 ng/mL TNFα (an activator of NF-κB), 500 μg/mL poly I:C (TLR3 ligand), 10 g/mL LPS-B5 (TLR4 ligand) or 10 g/mL Resiquimod (TLR-7/8 ligand). The compounds were used either alone (grey bars) or combined with 100 nM of plitidepsin (red bars) for 6 hours. We compared the variations in cytokine secretion in the cell culture supernatants between the different treatments by ELISA assays.
THP1-NFκB-LUC cell cultures were treated as described above, and the culture medium was sampled at 6 hours post-treatment to assay for secreted cytokines by ELISA. Media samples were stored at 4° C. IL-8, IL-1β, IL-6 and TNF□ protein secretion into culture medium was quantitated using highly specific and sensitive ELISA kits. Human IL-1b, human IL-6, human IL-8 and human TNF OptEIA™ ELISA kits were obtained from BD Biosciences and performed as described by the manufacturer. The data presented are the average of three independent experiments performed in triplicate.

[2] = test system: IL6, IL8, IL1β and TNF-α secretion; assay: Plitidepsin pre-treatment of THP-1 cells before Resiquimod stimulus, cytokine secretion; type: cell-based, human; settings: 1, 10 or 50 nM added 8 hours before Resiquimod 2.5 or 5 μg/mL; read at 24 hours
Protocol: (§4) In a further in vitro experiment, the effect of plitidepsin (APL) pre-treatment on THP-1 cells was studied. Using a THP-1 NFκB luc line, 1, 10 or 50 nM of APL or DMSO (0.2%) was added 8 hours before stimulus with Resiquimod (RQ) at 2.5 or 5 μg/mL. RQ is a TLR7/8 agonist and mimics ssRNA. At 24 hours the level of cytokines or cell viability was measured.

VeroE6 cells = assay: Cell biomass (DAPI) in VeroE6 cells; type: cell-based, African green monkey; settings: 48 hours
Protocol: as §1, §2, §3

WNV-NY99 (lineage 1) [3] = assay: Intracellular WNV RNA load by RT-qPCR, Huh-7 cells; type: cell-based, West Nile virus; settings: 48 hours
[4] = test system: IL-6, IL-10 and TNFα secretion; assay: Ex vivo LPS-B5-triggered cytokine secretion in bronchoalveolar lavage cells of treated mice; set-up: species or system mouse
Protocol: We checked whether plitidepsin inhibits the LPS-trigged cytokine secretion in alveolar macrophages. To that end mice were injected i.v. with plitidepsin (1 mg/kg) or vehicle and 12 hours after administration bronchoalveolar lavage fluid (BAL) was collected. Cells were plated and treated ex-vivo or not with 15 μg/mL of LPS-B5 for 3 or 6 hours and secreted cytokines were measured.
Mice were randomized into groups of five animals to receive the treatments. Mice were injected intra venous (i.v.) with plitidepsin (1 mg/kg) and 12 hours after administration were euthanised. Control group received plitidepsin vehicle diluted with saline (Cremophor/Ethanol/Water). Bronchoalveolar lavage fluid (BAL) of each group was collected and centrifugated to obtain bronchoalveolar lavage cells. Cells underwent red blood cell lysis (Roche) and were plated and treated ex-vivo or not with 15 μg/mL of LPS-B5 for 3 or 6 hours. Secreted cytokines were measured using highly specific and sensitive ELISA kits. Mouse IL-6, mouse IL-10 and mouse TNF DuoSet ELISA kits were obtained from R&D Systems and performed as described by the manufacturer.

[5] = test system: WNV-GFP (lineage 2; molecular clone WN956); assay: WNV-GFP infection efficiency in Huh7 cells; type: cell-based, West Nile virus
alveolar macrophages = assay: Alveolar macrophage recruitment in mice (LPS inflammation model, flow cytometry); settings: for macrophages in bronchoalveolar lavage: single iv administration
Text: Also we checked the effect of plitidepsin on alveolar macrophage recruitment. Viral infection also leads to the activation of macrophages. Activated macrophages are twice the size of resting macrophages and are more “aggressive”, having increased levels of lysosomal proteins and a greater ability to phagocytose. Classically activated macrophages also release proteases, neutrophil chemotactic factors, reactive oxygen species and pro-inflammatory cytokines (such as IL-1 beta/IL-1F2, IL-6, and TNF-alpha/TNFSF1A), leading to inflammation and tissue destruction. Bronchoalveolar lavage cells were stained and analyced by flow cytometry.
To investigate whether plitidepsin decreases the percentage of alveolar macrophage in animals with acute inflammation, we treated mice with plitidepsin (1 mg/kg) i.v., with LPS (20 μg/kg) i.p. in sterile saline or with plitidepsin (1 mg/kg; i.v.) in combination with LPS (20 μg/kg, i.p.). Three hours later, bronchoalveolar lavages were collected. Bronchoalveolar lavage cells were obtained by centrifugation and analyzed by flow cytometry (FIG. 4b). Upper panels show the strategy of analysis of macrophage population present in the samples. Lower right panel show the same result expressed as percentage of cells. Lower left panel show the percentage of CD45+(leucocyte marker) alive cells.
Bronchoalveolar lavage cells were obtained by centrifugation and analyzed by flow cytometry.
Bronchoalveolar lavage cells were stained with anti-F4/80-BV510, CD45-APC700, CD11b-BV650, CD11c-APC-Fire, CD24-PC7 and Ly6C-BV605 monoclonal antibodies (Biolegend) and a LIVE/DEAD™ Fixable Green Dead Cell Stain Kit, for 488 nm excitation (Thermofisher). Macrophages (F4/80+) were gated on alive immune cells (CD45+ LIVE/DEAD dye−), while alveolar macrophages (F4/80+CD24−) were specifically gated on CD11c+CD11b− population from alive immune cells. Isotype controls and compensation beads were used to set compensations and gating strategies.

WNV-NY99 (lineage 1) [6] = assay: WNV/NY99 extracellular infectivity titers, Vero-E6 cells; type: cell-based, West Nile virus; settings: VeroE6 cells, 45 nM, MOI 0.01, 48 hours
[7] = Plasma pharmacokinetics in mouse (Table 1); type: in vivo; settings: Mouse (F) C57BL6/J, 1.0 mg/kg single intravenous bolus
WNV-NY99 (lineage 1) [8] = assay: Intracellular WNV RNA load by RT-qPCR, Vero-E6 cells; type: cell-based, West Nile virus; settings: 48 hours
[9] = test system: THP-1 human monocytic cells; assay: MTT cell proliferation assay (compound-induced cytotoxicity); settings: activators combined with 100 nM plitidepsin, 6 hours
Protocol: To that end, we took advantage of THP-1 cells stably transfected with an NFκB luciferase reporter plasmid. We treated the cells with 100 ng/mL TNFα (an activator of NF-κB), 500 μg/mL poly I:C (TLR3 ligand), 10 μg/mL LPS-B5 (TLR4 ligand) or 10 g/mL Resiquimod (TLR-7/8 ligand). The compounds were used either alone (FIG. 1A grey bars) or combined with 100 nM of plitidepsin (FIG. 1A black bars) for 6 hours, and quantified the luciferase activity under each condition. […] Survival was analysed with the MTT assay (FIG. 1B grey bars (activators) and red bars (activators combined with 100 nM of plitidepsin)).
NF-κB transactivation was assayed using the Bright-Glo™ Luciferase Assay System following the manufacturer's instructions. […] Luminescence was measured in a Perkin-Elmer EnVision reader. […] Cell survival was expressed as percentage of control cell growth. […]
Cells were seeded in 96 well microtiter plates and allowed to stand for 24 hours at 37° C. and 5% CO2 before treatment described above. After 6 hours of continuous treatment, cellular viability was estimated from conversion of MTT to its coloured reaction product, MTT formazan, which was dissolved to measure its absorbance at 540 nm. […]

WNV-NY99 (lineage 1) [10] = assay: WNV/NY99 extracellular infectivity titers, Huh-7 cells; type: cell-based, West Nile virus; settings: 45 nM, MOI 0.01, 48 hours
THP-1 cells = assay: Cell viability after plitidepsin pre-treatment and Resiquimod stimulus; type: cell-based, human; settings: 1, 10 or 50 nM, Resiquimod 2.5 or 5 μg/mL, 24 hours
Protocol: as §4

[11] = test system: WNV-GFP (lineage 2; molecular clone WN956)
TNFα = assay: Resiquimod-triggered TNFα secretion in BALF of mice; type: in vivo; settings: mice 1 mg/kg i.v. 1 hour before 50 μg/mouse intranasal RQ; 1 or 3 hours
NF-κB = NF-κB transactivation luciferase assay in THP-1 cells; type: cell-based, human; settings: THP-1 NF-κB-Luc cells, 100 nM plitidepsin, 6 hours, with poly I:C, LPS-B5 or Resiquimod
Protocol: To that end, we took advantage of THP-1 cells stably transfected with an NFκB luciferase reporter plasmid. We treated the cells with 100 ng/mL TNFα (an activator of NF-κB), 500 μg/mL poly I:C (TLR3 ligand), 10 μg/mL LPS-B5 (TLR4 ligand) or 10 g/mL Resiquimod (TLR-7/8 ligand). The compounds were used either alone (FIG. 1A grey bars) or combined with 100 nM of plitidepsin (FIG. 1A black bars) for 6 hours, and quantified the luciferase activity under each condition.
NF-κB transactivation was assayed using the Bright-Glo™ Luciferase Assay System following the manufacturer's instructions. The NF-κB reporter (Luc)-THP-1 human monocytic, cells stably transfected with NF-κB-Luc plasmid (containing four NF-κB binding sites, a minimal promoter and a luciferase gene), were exposed to 100 ng/mL TNFα (positive control), 500 μg/mL poly (I:C) (Polyinosinic-polycytidylic), 10 μg/mL LPS-B5 (Lipopolysaccharide from Escherichia coli 055:B5) or 10 g/mL Resiquimod. The compounds were used either alone or combined with 100 nM plitidepsin for 6 hours. Luminescence was measured in a Perkin-Elmer EnVision reader. A MTT (3-(4,5-dimethylthiazol-2-yl)-2,5-diphenyltetrazolium bromide) cell proliferation assay was simultaneously performed to control the cytotoxicity of the compounds. Cell survival was expressed as percentage of control cell growth. […]

(−)-(3S,6R,7S,10R,11S,15S,17S,20S,25aS)-11-hydroxy-3-(4-methoxybenzyl)-2,6,17-trimethyl-15-(1-methylethyl)-7-[[(2R)-4-methyl-2-[methyl[[(2S)-1-(2-oxopropanoyl)pyrrolidin-2-yl]carbonyl]amino]pentanoyl]amino]-10-[(1S)-1-methylpropyl]-20-(2-methylpropyl)tetradecahydro-15H-pyrrolo[2,1-f]-[1,15,4,7,10,20]dioxatetrazacyclotricosine-1,4,8,13,16,18,21(17H)-heptone [PLD]
CC50 (Huh7 cells): 14.7 nM
concentration at which loss of cell biomass is statistically significant (p<0.05) (Huh7 cells): 7.2 nM
production of IL-1, IL-6, IL-8 and TNFα (ELISA) [1]: clearly inhibited the production of IL-1, IL-6, IL-8 and TNFα
secretion of IL6, IL8, IL1β and TNF-α induced by RQ [2]: inhibited secretion of the pro-inflammatory cytokines: IL6, IL8, IL1β and TNF-α
concentration at which cell number significantly decreased (p<0.05) (VeroE6 cells): 180 nM
concentration up to which cell number remained unchanged (VeroE6 cells): up to 36 nM
CC50 (VeroE6 cells; read-out: CC50 based on the cell biomass): 2330 nM
intracellular viral RNA load (WNV-NY99 (lineage 1) [3]; 15 nM): marked reduction in viral load
RNA recovery from cells (WNV-NY99 (lineage 1) [3]; 45 nM): no RNA could be recovered
production of IL-6 and TNF-α induced by LPS ([4]; mice 1 mg/kg i.v., BAL at 12 hours, cells treated ex vivo with 15 μg/mL LPS-B5 for 3 or 6 hours): clearly inhibited the production of pro-inflammatory cytokines IL-6, and TNF-α
secretion of IL-6, IL-10 and TNFα induced by LPS-B5 in CD45+ cells from broncho-alveolar lavages ([4]; treated animals, 3 and 6 hours): significantly reduce the secretion of IL-6, IL-10 and TNFα
EC50 ([5]; Huh7 cells, MOI 0.01, 48 hours): 0.665 nM
EC90 ([5]; Huh7 cells, MOI 0.01, 48 hours): 3.86 nM
concentration with antiviral activity in the absence of measurable interference with cell viability (p<0.05) ([5]; Huh-7 cells): 1.5 nM
cytotoxic effects on bronchoalveolar lavage cells (alveolar macrophages; 1 mg/kg i.v.): without cytotoxic effects
percentage of macrophages present on bronchoalveolar lavage (alveolar macrophages; plitidepsin 1 mg/kg i.v. with LPS 20 μg/kg i.p., 3 hours): decrease the percentage of macrophages
macrophages in bronchoalveolar lavage (alveolar macrophages): reduces the number of macrophages in BAL
macrophages in bronchoalveolar lavage (alveolar macrophages; listed as Plitidepsin): decreased the percentage of macrophages
reduction of extracellular infectivity titers (WNV-NY99 (lineage 1) [6]): > 3 orders of magnitude
Cl [7]: 73.3 mL/min/kg
intracellular viral RNA load (WNV-NY99 (lineage 1) [8]; 5 and 1.5 nM): not distinguishable from those in the control
intracellular viral RNA load (WNV-NY99 (lineage 1) [8]; 15 and 45 nM): significantly decreased in a dose-dependent manner
cytotoxic effect (survival, MTT assay) [9]: No cytotoxic effect was detected
reduction of extracellular infectivity titers (WNV-NY99 (lineage 1) [10]): > 3 orders of magnitude
cell viability over the untreated control (THP-1 cells): does not decrease viability over the untreated control
concentration with antiviral activity in the absence of measurable interference with cell viability (p<0.05) ([11]; Vero-E6 cells): 7.2 nM
therapeutic index (ratio CC50/EC50) ([11]; VeroE6 cells): 475
concentration at which infection efficiency reaches background fluorescence levels ([11]; VeroE6 cells, 48 hours): ≥ 36 nM
EC50 ([11]; read-out: EC50, WNV-GFP infection efficiency, VeroE6 cells, MOI 0.01, 48 hours): 4.9 nM
EC90 ([11]; read-out: EC90, WNV-GFP infection efficiency, VeroE6 cells, MOI 0.01, 48 hours): 9.5 nM
production of TNFα induced by Resiquimod in BALF (TNFα): prevented the increased production of TNFα
NF-κB transactivation (production of luciferase) (NF-κB): clearly inhibited the production of luciferase
